“Also recorded” adds a separate entry of the source.
Key:
Type in all cases: binding
[1] = test system: PSA; test: SPR sensitivity detection with micro concentration antigen, chip with Rabbit IgG; details: Rabbit IgG absorbed on chip, Rabbit IgG flowed again for increasing signal, FIG. 7A
Text: In the following experiments, antigen in micro concentration is employed for detecting the sensitivity of peptide ligand chips being able to recognize Rabbit IgG and Mouse IgG2a, and the experimental results are shown in FIG. 7A and FIG. 7B.
Firstly, Rabbit IgG and Mouse IgG2a are respectively absorbed to GGEGELW and GGRRGW. After flowing micro concentration antigen through, Rabbit IgG and Mouse IgG2a are flowed through the chip surface for increasing the detected signal. […] According to FIG. 7A and FIG. 7B, the signal of about 2 ng/mL PSA can be detected from Mouse IgG2a of GGRRGW chip surface, and the signal of about 1 ng/mL PSA can be detected from Rabbit IgG of GGEGELW chip surface. Therefore, it proves that the peptide ligand of this specification can efficiently improve the antigen sensitivity.

[2] = test system: Rabbit IgG; test: SPR absorption of Rabbit IgG on different chip surfaces
Text: (§1) In this and the following examples, we employ Surface Plasmon resonance (SPR) as detecting equipment. The method for modifying SPR chip surface is briefly illustrated as following.
(§2) OEG [(11-Mercaptoundecyl)tetra(ethyleneglycol)] and OEG-COOH [HS(CH2)11(EG)6OCH2COOH] are mixed at the ratio of 10:1. Through strong gold-sulfur bonding, OEG and OEG-COOH are employed for modifying SPR chip surface to form mixed SAM (self-assembly monolayer). The mixed SAM surface comprises carboxyl group with negative charge, and hydroxyl group with hydrophilicity. The carboxyl group with negative charge on the SPR chip surface can be activated by EDC/20% DMSO. By reacting the 1° amino group of EDA (ethylenediamine) with the carboxyl group on the SPR chip surface to form amide bonding, the SPR chip surface can be modified into positive charge. And, in the same condition, the peptide ligand according to this invention can be grafted onto the SPR chip surface to form a peptide ligand surface.)
(§3) 1. 5 mM peptide ligand, 200 mM EDC, and 20% DMSO are prepared into 0.1 M pH=6.0 MES buffer solution.
(§4) In this example, SPR is employed for measuring the absorption of target antibody, rabbit immunoglobulin (Rabbit IgG), and target antigen, prostate specific antigen (PSA), on different charge surfaces and different peptide ligand surfaces. The mentioned different chip surfaces are employed for absorbing Rabbit IgG, washed with phosphate buffer (PB) solution, and employed to absorb PSA directly. Then, PB buffer solution is used to wash out the PSA not recognized by Rabbit IgG for measuring the absorption of antibody and antigen. The experimental process is roughly shown as following.
(§5) 1. 10 μg/mL Rabbit IgG is prepared in 0.01 M pH=7.4 PB buffer solution.
3. […]
(§6) In the above experiments, Surface Plasmon Resonance (SPR) is employed for measuring the antigen recognition efficiency of antibody on different modified chip surfaces. The recognition efficiency of Rabbit IgG and PSA on different chip with different charge surface and different peptide ligand is detected. […]

[3] = test system: Mouse IgG2a; test: SPR absorption of Mouse IgG2a on different chip surfaces; details: FIG. 2
Text: as §1, §2, §3, §6

[4] = test system: prostate specific antigen (PSA); test: SPR PSA absorption / antigen recognition on chip surfaces with Rabbit IgG; details: FIG. 4A
Text: as §4, §5
2. 5 μg/mL PSA is prepared in 0.01 M pH=7.4 PB buffer solution.
3. The negative charge, positive charge, and peptide ligand modified chips are put on SPR respectively.
4. The flow rate is set at 20 μL/min.
5. Rabbit IgG, PB, PSA, and PB are flowed through the channel in sequence. The absorption time is about 60 minutes, and the desorption time is about 50 minutes.
(§7) Different chips with Rabbit IgG and Mouse IgG2a are used for PSA absorption experiment, and the PSA absorption is transferred to protein absorption by the above-mentioned formula, as shown in FIG. 3A and FIG. 3B.
(§8) In order to compare antigen recognition efficiency, we define “antigen recognition efficiency” as following: […]

[5] = test system: prostate specific antigen (PSA); test: SPR PSA absorption / antigen recognition on chip surfaces with Mouse IgG2a
Text: as §4, §7, §8

[6] = test system: Mouse IgG2a; test: SPR analysis of antibody oriented immobilization (orientation factor), Mouse IgG2a; details: ratio of PSA and 2nd antibody, FIG. 6B
Target sequence in this assay (P01863 98-330 limits assumed): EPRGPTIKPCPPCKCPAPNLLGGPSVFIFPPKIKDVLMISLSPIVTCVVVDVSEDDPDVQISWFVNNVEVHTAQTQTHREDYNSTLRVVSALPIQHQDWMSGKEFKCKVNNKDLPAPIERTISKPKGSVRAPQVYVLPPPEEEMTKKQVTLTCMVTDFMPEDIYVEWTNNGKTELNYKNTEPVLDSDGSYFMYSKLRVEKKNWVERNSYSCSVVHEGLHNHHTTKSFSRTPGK

Rabbit IgG, sequence (P01870 101-323 limits assumed): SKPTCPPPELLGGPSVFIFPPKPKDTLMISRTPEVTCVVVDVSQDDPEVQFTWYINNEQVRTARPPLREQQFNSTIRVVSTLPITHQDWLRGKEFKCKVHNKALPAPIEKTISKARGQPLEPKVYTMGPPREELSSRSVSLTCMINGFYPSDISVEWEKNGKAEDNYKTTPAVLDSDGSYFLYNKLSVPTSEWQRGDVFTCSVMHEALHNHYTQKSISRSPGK

GGEGELW
PSA concentration whose signal can be detected by SPR [1]: about 1 ng/mL

RRGW
specificity to these antibodies ([2]; Rabbit IgG versus Mouse IgG2a absorption, FIG. 1B compared with FIG. 2): does not have specificity | Rabbit IgG absorption on chip surface (in words) ([2]; SPR, FIG. 1B): not much difference; also recorded: great | Rabbit IgG absorption to the chip surface ([2]; SPR, peptide ligand chip surface, FIG. 3A): about 0.2 mol/cm^2 | Mouse IgG2a absorption on chip surface (in words) [3]: great; also recorded: higher | antigen recognition efficiency of Rabbit IgG [4]: not good | antigen recognition efficiency of Mouse IgG2a ([5]; PSA, FIG. 4B): great | PSA absorption on chip surface with Mouse IgG2a (in words) ([5]; SPR, FIG. 3B): great | oriented immobilization of Mouse IgG2a on chip surface ([5]; deduced from Mouse IgG2a and PSA absorption): great | orientation factor, chip surface with Mouse IgG2a [6]: good

Reference: US20160046665A1, “Peptide Ligand with Antibody Selectivity and the Application Thereof” (National Central University, priority 2014, published 2016)
